Data from patent US5026703A, “Peptide oxytocin antagonists” (priority 1990, dated 1991).
*1 amine or outer side, *2 acyl side, *3 side chain or, on linkers, in order; H or OH if unused. Where a SMILES comes first, the peptide text is derived from it. [ ]: non-standard residue; d: D form. X13 = CC[C@H](C)[C@H](NC(=S)[C@@H](Cc1ccccc1)N[*:1])C(=O)[*:2]; X2 = O=C([C@@H]1[C@@H](O)[C@@H](O)C=NN1[*:1])[*:2]; X6 = CN(C)C[C@H]1C=NN([*:1])[C@H](C(=O)[*:2])C1; X4 = CN(C)CCNC1C=NN([*:1])[C@H](C(=O)[*:2])C1; Piz(1,6-dehydro) = O=C(O)[C@@H]1CCC=NN1; X3 = C=C1C=NN([*:1])[C@H](C(=O)[*:2])C1; dPiz(1,6-dehydro) = O=C(O)[C@H]1CCC=NN1; dNMeF = CN[C@H](Cc1ccccc1)C(=O)O

Assays:
[1] = molecular target: T1, uterine OT receptors (Rattus norvegicus, UniProt P70536); assay: [3H]OT radioligand binding to uterine OT receptors, crude membrane preparation; details: uteri of DES-treated rats; 1 nM [3H]OT; 60 min, 22° C.; inhibits specific binding by 50%; read-out: Receptor Binding Results IC50 (nM) [3H]OT
T1 construct: from tissue; host or cells: uterus of DES-treated rats, crude membranes
T1 sequence (P70536 1-388): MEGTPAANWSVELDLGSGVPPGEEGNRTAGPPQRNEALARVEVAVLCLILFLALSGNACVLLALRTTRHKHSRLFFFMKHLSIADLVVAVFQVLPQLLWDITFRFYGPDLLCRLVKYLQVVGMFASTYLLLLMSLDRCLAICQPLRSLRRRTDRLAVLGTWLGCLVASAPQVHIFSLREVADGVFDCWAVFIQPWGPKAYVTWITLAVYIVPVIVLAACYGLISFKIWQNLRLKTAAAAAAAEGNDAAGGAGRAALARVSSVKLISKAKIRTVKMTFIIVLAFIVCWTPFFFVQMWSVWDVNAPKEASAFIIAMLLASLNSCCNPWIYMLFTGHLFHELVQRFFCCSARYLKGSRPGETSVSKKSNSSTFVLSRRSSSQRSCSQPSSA
Protocol: The high affinity binding of [^3 H]OT ([tyrosyl, 3,5-[^3 H]OT; 30-60 Ci/mmol; New England Nuclear Boston, Mass.) to uterine OT receptors was based on an assay* using a crude membrane preparation of uteri taken from diethylstilbestrol dipropionate (DES)-treated (0.3 mg/kg, ip; 18-24) rats. Competition studies were conducted at equilibrium (60 min; 22° C.) using 1 nM [^3 H]OT in the following assay buffer: 50 mM Tris-HCl, 5 mM MgCl2, and 0.1% BSA, pH 7.4. Nonspecific binding (10% of the total binding) was determined using 1 μM unlabeled OT and the binding reaction was terminated by filtration through glass fiber filters using a cell harvester (model 7019, Skatron, Inc., Sterling, Va.).
*Fuchs, A-R; Fuchs, F; Soloff, MS. 1985 J. Clin. Endocrinol. Metab. 60:37.

[2] = molecular target: AVP-V2 sites (Rattus norvegicus, UniProt Q00788); assay: [3H]AVP radioligand binding to rat kidney medulla crude membrane preparation (AVP-V2 sites); details: rat kidney medulla membranes; 2 nM [3H]AVP; 30 min at 30° C.; read-out: Receptor Binding Results IC50 (nM) [^3 H]-AVP-V2
Protocol: (§1) Nonspecific binding (5-10% of the total binding) was determined using 10 μM unlabeled AVP, and the binding reaction was terminated by filtration as described above for the [^3 H]OT binding assay.
(§2) +Butlen, D; Guillon, G; Rajerison, RM; Jard, S; Sawyer, WH; Manning, M. 1978 Mol Pharmacol 14:1006.

[3] = molecular target: AVP-V1 sites (Rattus norvegicus, UniProt P30560); assay: [3H]AVP radioligand binding to male rat liver crude membrane preparation (AVP-V1 sites); details: male rat liver membranes; 1 nM [3H]AVP; 30 min at 30° C.; read-out: Receptor Binding Results IC50 (nM) [^3 H]-AVP-V1
Protocol: as §1, §2

Sequence of AVP-V1 sites (P30560 whole entry): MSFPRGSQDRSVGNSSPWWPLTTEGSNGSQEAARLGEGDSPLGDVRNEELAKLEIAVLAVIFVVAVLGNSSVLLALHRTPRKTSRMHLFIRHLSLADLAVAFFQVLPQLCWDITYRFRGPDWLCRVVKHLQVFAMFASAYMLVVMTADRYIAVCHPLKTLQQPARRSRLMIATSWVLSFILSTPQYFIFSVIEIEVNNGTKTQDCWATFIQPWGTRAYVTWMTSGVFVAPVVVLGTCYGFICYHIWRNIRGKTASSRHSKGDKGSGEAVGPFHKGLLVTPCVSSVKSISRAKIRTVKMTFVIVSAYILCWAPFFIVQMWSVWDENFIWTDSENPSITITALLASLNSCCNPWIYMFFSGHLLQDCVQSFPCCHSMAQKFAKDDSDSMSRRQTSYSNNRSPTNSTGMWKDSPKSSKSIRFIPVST
Sequence of AVP-V2 sites (Q00788 whole entry): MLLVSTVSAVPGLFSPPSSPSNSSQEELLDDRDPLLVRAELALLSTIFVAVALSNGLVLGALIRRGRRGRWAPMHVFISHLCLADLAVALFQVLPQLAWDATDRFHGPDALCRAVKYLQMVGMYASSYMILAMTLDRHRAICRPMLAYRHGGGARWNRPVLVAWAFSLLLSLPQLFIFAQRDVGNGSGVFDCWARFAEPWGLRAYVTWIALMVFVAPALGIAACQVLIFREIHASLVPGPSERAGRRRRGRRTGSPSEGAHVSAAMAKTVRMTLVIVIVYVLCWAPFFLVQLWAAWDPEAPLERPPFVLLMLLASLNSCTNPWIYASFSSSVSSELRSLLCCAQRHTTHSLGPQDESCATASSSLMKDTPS

Row | Structure (SMILES) | IC50 [1] | IC50 [2] | IC50 [3]
1 | CC[C@H](C)[C@@H]1NC(=O)[C@@H](Cc2ccccc2)NC(=O)[C@@H]2CCCN2C(=O)[C@@H](Cc2ccccc2)N(C)C(=O)[C@@H]2C[C@@H](CN(C)C)C=NN2C(=O)[C@H]2CCC=NN2C1=O [Example 18, cyclo-[D-Phenylalanyl-L-isoleucyl-D-2,3,4,5-tetrahydro-3-pyridazinecarbonyl-trans-5-(dimethylamino)methyl-L-2,3,4,5,-tetrahydro-3-pyridazinecarbonyl-N-methyl-D-phenylalanyl-L-prolyl] monoacetate] (cyclo(I[dPiz(1,6-dehydro)][X6][dNMeF]P[dF])) | 7.8 nM | 2800 nM | 1850 nM
2 | CC[C@H](C)[C@@H]1NC(=O)[C@@H](Cc2ccccc2)NC(=O)[C@@H]2CCCN2C(=O)[C@@H](Cc2ccccc2)N(C)C(=O)[C@@H]2CC(NCCN(C)C)C=NN2C(=O)[C@H]2CCC=NN2C1=O (stereo partly drawn) [Example 16, cyclo-[D-Phenylalanyl-L-isoleucyl-D-2,3,4,5-tetrahydro-3-pyridazinecarbonyl-5-((2-dimethylamino)ethylamino)-L-2,3,4,5,-tetrahydro-3-pyridazinecarbonyl-N-methyl-D-phenylalanyl-L-prolyl] (trifluoroacetate) (High Rf isomer)] (cyclo(I[dPiz(1,6-dehydro)][X4][dNMeF]P[dF])) | 220 nM | 7300 nM | 930 nM
3 | CC[C@H](C)[C@@H]1NC(=S)[C@@H](Cc2ccccc2)NC(=O)[C@@H]2CCCN2C(=O)[C@@H](Cc2ccccc2)N(C)C(=O)[C@@H]2CCC=NN2C(=O)[C@H]2CCC=NN2C1=O [Example 10, cyclo-[D-Thiophenylalanyl-L-isoleucyl-D-2,3,4,5-tetrahydro-3-pyridazinecarbonyl-L-2,3,4,5-tetrahydro-3-pyridazinecarbonyl-N-methyl-D-phenylalanyl-L-prolyl]] (cyclo(P[X13][dPiz(1,6-dehydro)][Piz(1,6-dehydro)][dNMeF])) | 1 nM | 270 nM | 300 nM
4 | C=C1C=NN2C(=O)[C@H]3CCC=NN3C(=O)[C@H]([C@@H](C)CC)NC(=O)[C@@H](Cc3ccccc3)NC(=O)[C@@H]3CCCN3C(=O)[C@@H](Cc3ccccc3)N(C)C(=O)[C@@H]2C1 [Example 20, cyclo-[D-Phenylalanyl-L-isoleucyl-D-2,3,4,5-tetrahydro-3-pyridazinecarbonyl-5-methylene-L-2,3,4,5,-tetrahydro-3-pyridazinecarbonyl-N-methyl-D-phenylalanyl-L-prolyl]] (cyclo(I[dPiz(1,6-dehydro)][X3][dNMeF]P[dF])) | 37 nM | > 10000 nM | > 10000 nM

Continued, values first:

Row | IC50 [1] | IC50 [2] | IC50 [3] | Structure (SMILES)
5 | 785 nM | > 10000 nM | 10000 nM | CC[C@H](C)[C@@H]1NC(=O)[C@@H](Cc2ccccc2)NC(=O)[C@@H]2CCCN2C(=O)[C@@H](Cc2ccccc2)N(C)C(=O)[C@@H]2[C@@H](O)[C@@H](O)C=NN2C(=O)[C@H]2CCC=NN2C1=O [Example 13, cyclo-[D-Phenylalanyl-L-isoleucyl-D-2,3,4,5-tetrahydro-3-pyridazinecarbonyl-(3α,4β,5β)-4,5-dihydroxy-L-2,3,4,5-tetrahydro-3-pyridazinecarbonyl-N-methyl-D-phenylalanyl-L-prolyl]] (cyclo(I[dPiz(1,6-dehydro)][X2][dNMeF]P[dF]))
6 | 30000 nM | > 30000 nM | > 30000 nM | CC[C@H](C)[C@@H]1NC[C@@H](Cc2ccccc2)NC(=O)[C@@H]2CCCN2C(=O)[C@@H](Cc2ccccc2)N(C)C(=O)[C@@H]2CCC=NN2C(=O)[C@H]2CCC=NN2C1=O [Example 7, cyclo-[N-(2-Amino-3-phenylpropyl)-L-isoleucyl-D-2,3,4,5-tetrahydro-3-pyridazinecarbonyl-L-2,3,4,5-tetrahydro-3-pyridazinecarbonyl-N-methyl-D-phenylalanyl-L-prolyl]]
